The text below walks through data of ChEMBL document CHEMBL1129051, “9-Dihydroxy-2,3,7,11b-tetrahydro-1H-naph[1,2,3-de]isoquinoline: a potent full dopamine D1 agonist containing a rigid-beta-phenyldopamine pharmacophore” (J Med Chem, 1996).

In the first experiment the target is D(1A) dopamine receptor (Homo sapiens) (UniProt P21728). The experiment can be described thus: Hill slope was determined for the compound in D1 receptor binding assay.
Sequence of D(1A) dopamine receptor (Homo sapiens) (P21728 whole entry): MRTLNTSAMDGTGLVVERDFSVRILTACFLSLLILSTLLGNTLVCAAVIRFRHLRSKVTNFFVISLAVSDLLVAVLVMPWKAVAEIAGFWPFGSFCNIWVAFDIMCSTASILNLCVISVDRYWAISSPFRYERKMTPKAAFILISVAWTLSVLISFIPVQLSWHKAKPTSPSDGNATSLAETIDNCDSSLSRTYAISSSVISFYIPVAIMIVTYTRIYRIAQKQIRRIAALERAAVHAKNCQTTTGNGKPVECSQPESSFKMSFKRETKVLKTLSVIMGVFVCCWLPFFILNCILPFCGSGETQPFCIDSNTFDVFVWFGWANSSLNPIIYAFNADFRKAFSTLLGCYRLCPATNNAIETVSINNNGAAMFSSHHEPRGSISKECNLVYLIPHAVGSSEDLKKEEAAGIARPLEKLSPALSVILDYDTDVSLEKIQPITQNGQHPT
For the compound `Oc1cc2c(cc1O)[C@H]1c3ccccc3CN[C@@H]1CC2`, the nH stood at 0.65.
On the same count and under the same terms, as for `CN1CCc2cc(Cl)c(O)cc2[C@@H](c2ccccc2)C1`, the figure is 1.05; as for `Oc1ccc2c(c1O)Cc1cccc3c1[C@H]2CNC3`, 0.66; as for `Oc1cc2c(cc1O)[C@@H](c1ccccc1)CNCC2`, 0.75.

For the next experiment, the target named is D(2) dopamine receptor (Homo sapiens) (UniProt P14416).
Sequence of D(2) dopamine receptor (Homo sapiens) (P14416 whole entry): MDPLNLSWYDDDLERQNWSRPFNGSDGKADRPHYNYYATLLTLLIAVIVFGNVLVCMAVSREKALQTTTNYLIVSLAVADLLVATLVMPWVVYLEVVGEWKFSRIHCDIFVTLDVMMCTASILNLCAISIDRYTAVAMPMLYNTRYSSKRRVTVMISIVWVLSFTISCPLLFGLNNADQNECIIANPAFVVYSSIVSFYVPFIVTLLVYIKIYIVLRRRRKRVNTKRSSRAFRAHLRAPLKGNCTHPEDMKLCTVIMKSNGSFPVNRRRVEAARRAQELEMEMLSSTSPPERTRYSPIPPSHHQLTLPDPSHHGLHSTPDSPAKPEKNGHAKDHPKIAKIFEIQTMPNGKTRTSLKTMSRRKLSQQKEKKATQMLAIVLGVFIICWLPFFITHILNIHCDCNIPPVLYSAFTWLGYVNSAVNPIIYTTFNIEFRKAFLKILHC
Description: Hill slope was determined for the compound in D2 receptor binding assay
In turn, `Oc1cc2c(cc1O)[C@H]1c3ccccc3CN[C@@H]1CC2` displayed a nH of 0.72.
Still for that read-out and setting: the same measure for `CN(C)CCCN1c2ccccc2Sc2ccc(Cl)cc21`: 0.93.
